This is an account of results in BindingDB's records for doi:10.1016/j.bioorg.2015.04.006 (Ataturk University, 2015).

A word on the IC50: it is the concentration that inhibits the measured activity by half. A word on the Ki: it is a measure of affinity in units of concentration, obtained from inhibition or displacement.

Acetylcholinesterase, sequence (P22303 whole entry): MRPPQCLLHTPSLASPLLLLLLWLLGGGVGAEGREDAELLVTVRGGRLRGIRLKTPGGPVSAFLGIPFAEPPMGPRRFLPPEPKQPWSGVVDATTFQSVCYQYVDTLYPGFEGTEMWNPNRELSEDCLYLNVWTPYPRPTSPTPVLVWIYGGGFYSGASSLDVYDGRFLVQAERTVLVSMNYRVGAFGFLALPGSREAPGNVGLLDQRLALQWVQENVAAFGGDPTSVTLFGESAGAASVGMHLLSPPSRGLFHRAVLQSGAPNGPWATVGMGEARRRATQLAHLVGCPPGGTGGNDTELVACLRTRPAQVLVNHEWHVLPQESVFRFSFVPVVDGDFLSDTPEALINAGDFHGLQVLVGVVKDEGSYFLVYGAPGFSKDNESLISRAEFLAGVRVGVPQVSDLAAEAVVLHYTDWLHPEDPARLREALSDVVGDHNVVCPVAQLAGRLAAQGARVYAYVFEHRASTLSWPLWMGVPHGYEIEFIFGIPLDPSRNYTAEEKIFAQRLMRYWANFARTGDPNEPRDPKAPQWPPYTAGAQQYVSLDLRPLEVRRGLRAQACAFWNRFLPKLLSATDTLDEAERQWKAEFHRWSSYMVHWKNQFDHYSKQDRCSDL

The target in the assay is Acetylcholinesterase (Homo sapiens, UniProt P22303). In words: Acetylcholinesterase Inhibition Assay. The note with it: pH 8. How it is done:
AChI and 5,5'-dithio-bis(2-nitro-benzoic)acid (DTNB) were used as substrate for this enzymatic reaction. […] Then 50 µL of DTNB (0.5 mM) was transferred. Then the reaction was initiated by the addition of 50 µL of AChI. The hydrolysis of AChI was recorded spectrophotometrically by the formation of yellow 5-thio-2-nitrobenzoate anion as the result of the reaction of DTNB with thiocholine at a wavelength of 412 nm.
Compound `COc1ccc(OC)c(Br)c1` [2-bromo-1,4-dimethoxybenzene (14)] displayed an IC50 of 7.21 nM and a Ki of 4.25 nM.

For `COc1ccc(C(=O)c2ccc(OC)cc2OC)cc1` [(2,4-dimethoxyphenyl)(4-methoxyphenyl)methanone (18)], the midpoint of inhibition, the IC50, lay at 5.25 nM and affinity was put at a Ki of 5.88 nM.

The compound `O=C(c1ccc(O)cc1Br)c1cccc(O)c1O` [(2-Bromo-4-hydroxyphenyl)(2,3-dihydroxyphenyl)methanone (21)] displayed a half-inhibitory concentration (IC50) of 4.84 nM and a Ki of 3.75 nM.

Turning to `COc1ccc(C(=O)c2cccc(OC)c2OC)c(Br)c1` [(2-Bromo-4-methoxyphenyl)(2,3-dimethoxyphenyl)methanone (11)], the midpoint of inhibition, the IC50, lay at 4.2 nM and the affinity, expressed as Ki, was 4.34 nM.

Regarding `O=C(c1ccc(O)c(O)c1)c1ccc(O)cc1Br` [(2-bromo-4-hydroxyphenyl)(3,4-dihydroxyphenyl)methanone (20)], the IC50 is 4.71 nM and the inhibitory constant (Ki) was 4.06 nM.

Compound `COc1ccc(C(=O)c2ccc(OC)c(OC)c2)c(Br)c1` [(2-bromo-4-methoxyphenyl)(3,4-dimethoxyphenyl)methanone (10)] returned an IC50 of 4.41 nM and a Ki of 3.53 nM.

Compound `O=C(c1ccc(O)cc1)c1cc(O)c(Br)cc1O` [(4-Bromo-2,5-dihydroxyphenyl)(4-hydroxyphenyl)methanone (22)] gave an IC50 of 4.58 nM and a Ki of 2.78 nM.

As to `O=C(c1ccccc1)c1cc(O)c(Br)cc1O` [(4-Bromo-2,5-dihydroxyphenyl)(phenyl)methanone (23)], the IC50 stood at 4.88 nM and affinity was put at a Ki of 3.24 nM.

The compound `COc1ccc(C(=O)c2cc(OC)c(Br)cc2OC)cc1` [(4-Bromo-2,5-dimethoxyphenyl)(4-methoxyphenyl)methanone (15)] gave an IC50 of 4.22 nM and a Ki of 3.77 nM.

Compound `COc1cc(C(=O)c2ccccc2)c(OC)cc1Br` [(4-Bromo-2,5-dimethoxyphenyl)(phenyl)methanone (16)] showed an IC50 of 4.68 nM and a Ki of 5.28 nM.

For `O=C(c1ccc(O)cc1)c1cc(Br)c(O)cc1O` [(5-Bromo-2,4-dihydroxyphenyl)(4-hydroxyphenyl)methanone (24)], the IC50 came to 4.81 nM and the Ki worked out at 5.72 nM.

Take `COc1ccc(C(=O)c2cc(Br)c(OC)cc2OC)cc1` [(5-bromo-2,4-dimethoxyphenyl)(4-methoxyphenyl)methanone (19)]: the half-maximal inhibitory concentration (IC50) stood at 4.05 nM and the Ki is 3.65 nM.
